Test results taken from ChEMBL document CHEMBL4002643, “Tubulin-binding dibenz[c,e]oxepines: Part 2. Structural variation and biological evaluation as tumour vasculature disrupting agents” (Bioorg Med Chem, 2017).
Calls of active or inactive are those of the source. The rule behind the calls is not given here.

Key:
CAKI-1 = test: Cytotoxicity against human Caki1 cells assessed as growth inhibition after 48 hrs by SRB assay; format: functional; conditions: CAKI-1, 48 h
TK-10 = test: Cytotoxicity against human TK10 cells assessed as growth inhibition after 48 hrs by SRB assay; format: functional; conditions: TK-10, 48 h
M14 = test: Cytotoxicity against human M14 cells assessed as growth inhibition after 48 hrs by SRB assay; format: functional; conditions: M14, 48 h
OVCAR-4 = test: Cytotoxicity against human OVCAR4 cells assessed as growth inhibition after 48 hrs by SRB assay; format: functional; conditions: OVCAR-4, 48 h
OVCAR-3 = test: Cytotoxicity against human OVCAR3 cells assessed as growth inhibition after 48 hrs by SRB assay; format: functional; conditions: OVCAR-3, 48 h
HOP-92 = test: Cytotoxicity against human HOP92 cells assessed as growth inhibition after 48 hrs by SRB assay; format: functional; conditions: HOP-92, 48 h
CCRF-CEM = test: Cytotoxicity against human CCRF-CEM cells assessed as growth inhibition after 48 hrs by SRB assay; format: functional
EKVX = test: Cytotoxicity against human EKVX cells assessed as growth inhibition after 48 hrs by SRB assay; format: functional
MDA-MB-468 = test: Cytotoxicity against human MDA-MB-468 cells assessed as growth inhibition after 48 hrs by SRB assay; format: functional; conditions: MDA-MB-468, 48 h
MDA-MB-435 = test: Cytotoxicity against human MDA-MB-435 cells assessed as growth inhibition after 48 hrs by SRB assay; format: functional; conditions: MDA-MB-435, 48 h
NCI-H460 = test: Cytotoxicity against human NCI-H460 cells assessed as growth inhibition after 48 hrs by SRB assay; format: functional; conditions: NCI-H460, 48 h
DU-145 = test: Cytotoxicity against human DU145 cells assessed as growth inhibition after 48 hrs by SRB assay; format: functional; conditions: DU-145, 48 h
Malme-3M = test: Cytotoxicity against human MALME-3M cells assessed as growth inhibition after 48 hrs by SRB assay; format: functional
Mus musculus [1] = test: Toxicity in human Calu6 cells xenografted nu/nu CBA mouse assessed as change in body weight at 67.5 to 135 mg/kg, ip administered on day 1 and 5 measured daily over 12 days; format: organism-based; conditions: in vivo, 288 h
Calu-6 [2] = test: Antitumor activity against human Calu6 cells xenografted in nu/nu CBA mouse assessed as tumor growth inhibition at 67.5 to 135 mg/kg, ip administered on day 1 and 5 measured on day 3 to 4 and day 7 to 16 post dose; format: functional, organism-based
Calu-6 [3] = test: Antitumor activity against human Calu6 cells xenografted in nu/nu CBA mouse assessed as tumor growth inhibition at 67.5 to 135 mg/kg, ip administered on day 1 and 5 measured on day 2 and 6 post dose; format: functional, organism-based
DLD-1 [4] = test: Vascular disrupting activity in human DLD1 cells xenografted in Balb/C immunodeficient nude mouse assessed as induction of necrosis by measuring necrotic area at 400 mg/kg, iv at 4 hrs post dose by haematoxylin and eosin staining-based assay (reference value: 19 +/- 9.6%); format: functional
DLD-1 [5] = test: Induction of vascular shutdown in human DLD1 cells xenografted in Balb/C immunodeficient nude mouse at 400 mg/kg, iv by […] dye-based microscopic method; format: functional, organism-based; conditions: TDE = time-dependent effect
DLD-1 [6] = test: Vascular disrupting activity in human DLD1 cells xenografted in Balb/C immunodeficient nude mouse assessed as induction of necrosis by measuring necrotic area at 400 mg/kg, iv at 1 hr post dose by haematoxylin and eosin staining-based assay (reference value: 19 +/- 9.6%); format: functional
DLD-1 [7] = test: Induction of vascular shutdown in human DLD1 cells xenografted in Balb/C immunodeficient nude mouse assessed as vascular element counts at 400 mg/kg, iv at 24 hrs post dose by […] dye-based microscopic method (reference value: 3.73 +/- 3.1%); format: functional
DLD-1 [8] = test: Vascular disrupting activity in human DLD1 cells xenografted in Balb/C immunodeficient nude mouse assessed as induction of necrosis by measuring necrotic area at 400 mg/kg, iv at 24 hrs post dose by haematoxylin and eosin staining-based assay (reference value: 19 +/- 9.6%); format: functional
DLD-1 [9] = test: Induction of vascular shutdown in human DLD1 cells xenografted in Balb/C immunodeficient nude mouse assessed as vascular element counts at 400 mg/kg, iv at 4 hrs post dose by […] dye-based microscopic method (reference value: 3.73 +/- 3.1%); format: functional
Mus musculus [10] = test: Toxicity in human DLD1 cells xenografted Balb/C immunodeficient nude mouse assessed as body weight loss at 200 to 400 mg/kg, iv administered day 2 and 4 measured 14 days post dose; format: organism-based; conditions: in vivo, 336 h
DLD-1 [11] = test: Induction of vascular shutdown in human DLD1 cells xenografted in Balb/C immunodeficient nude mouse assessed as vascular element counts at 400 mg/kg, iv at 1 hr post dose by […] dye-based microscopic method (reference value: 3.73 +/- 3.1%); format: functional

Structure (SMILES)	GI50 (CAKI-1) [nM]	GI50 (TK-10) [nM]	GI50 (M14) [nM]	GI50 (OVCAR-4) [nM]	GI50 (OVCAR-3) [nM]	GI50 (HOP-92) [nM]	GI50 (CCRF-CEM) [nM]	GI50 (EKVX) [nM]	GI50 (MDA-MB-468) [nM]	GI50 (MDA-MB-435) [nM]	GI50 (NCI-H460) [nM]	GI50 (DU-145) [nM]	GI50 (Malme-3M) [nM]	other results
COc1ccc2c(c1)COCc1cc(OC)c(OC)c(OC)c1-2	30200	> 100000	50	740	50	> 100000	80	600	30	30	170	180	> 100000	
COc1ccc2c(c1O)COCc1cc(OC)c(OC)c(OC)c1-2	830	> 100000	50	710	210	590	40		220	30	310	60		Activity (Mus musculus [1]): Non-Toxic; TGI (Calu-6 [2]): inactive; TGI (Calu-6 [3]): Active
COc1ccc2c(c1OP(=O)([O-])[O-])COCc1cc(OC)c(OC)c(OC)c1-2.[Na+].[Na+]	790		270	1290	280		290	680	1150	40	360	390	2510	Activity (DLD-1 [4]): 26%; Activity (DLD-1 [5]): Tde; Activity (DLD-1 [6]): 27.1%; Activity (DLD-1 [7]): 0.95%; Activity (DLD-1 [8]): 74.1%; Activity (DLD-1 [9]): 1.96%; Activity (Mus musculus [10]): Non-Toxic; Activity (DLD-1 [11]): 0.33%
